Measurements from patent publication US10053443B2, “2-phenylbenzofuran derivatives, method for preparing the same and use of the same for treating inflammatory disease” (KOREA RESEARCH INSTITUTE OF BIOSCIENCE AND BIOTECHNOLOGY, priority 2014, dated 2018).
Where two headings read alike, the source gives them in different places.

How the values were obtained:
[1] = test system: interleukin-6 (IL-6) generation; experiment: Inhibition of interleukin-6 (IL-6) generation in LPS-treated Raw 264.7 cells (ELISA); format: cell-based, mouse; conditions: Raw 264.7, LPS treated, read-out: Grades of IC50 on IL-6 generation
Protocol: Raw 264.7 cells were distributed by the same manner as described in Experimental Example <2-1>, and IL-6 included in the supernatant treated with each sample at different concentrations was measured by enzyme-linked immunosorbent assay (IL-6 ELISA kit, BD Bioscience, San Diego, Calif.).
(§1) Particularly, 10-fold diluted supernatant was distributed in a 96-well plate on which IL-6 antibody was attached, followed by adhesion for 2 hours. The supernatant remaining after the adhesion was washed with a washing buffer. The detection antibody and HRP were adhered on the washed plate for 1 hour. The remaining antibody was washed. Color development was induced by using TMB substrate. The reaction was terminated with sulfuric acid solution. Then, OD450 was measured. IL-6 in the supernatant was quantified by using the standard curve made with the standard IL-6 included in the kit. IL-6 suppression rate was calculated by measuring the same concentration that could inhibit IL-6 generation up to 50% in the LPS treated group and the results are shown in Table 8.

[2] = test system: Raw 264.7 (ATCC TIB71) cells; experiment: Evaluation of cell survival rate of macrophages (MTT); format: cell-based, mouse; conditions: Raw 264.7, 10 μM, 24 hours
Protocol: Raw 264.7 (ATCC TIB71) cells, the mouse derived macrophages', were inoculated in a 96-well plate containing DMEM (Dulbecco's modified Eagle medium; Welgene, Korea) supplemented with 10% FBS (Fetal Bovine Serum), 2 mM glutamine, penicillin (100 unit/ml), and streptomycin (100 μg/ml) at the density of 1×10^4 cells/well. The cells were cultured in 5% CO2 at 37° C. for 4 hours to attach the cells onto the plate. Next, the cells were treated with each sample at different concentrations, followed by further culture for 24 hours. To investigate the cell survival rate, 5 mg/ml of MTT (3-(4,5-dimethylthiazol-2-yl)-2,5-diphenyltetrazoliumbromide, Amresco, OH, USA) was distributed thereto (10 μl/well), followed by culture for 4 hours. Then, the supernatant was eliminated. Formazan reduced from MTT by mitochondria was dissolved in 100 μl of DMSO and then OD570 was measured. 0.2% DMSO was used for the negative control.

[3] = test system: Nitrogen Oxide (NO) generation; experiment: Inhibition of nitrogen oxide (NO) generation in LPS-treated Raw 264.7 cells (Griess); format: cell-based, mouse; conditions: Raw 264.7, LPS 500 ng/ml, 24 hours
Protocol: Raw 264.7 (ATCC TIB71) cells were inoculated in a 96-well plate containing the same medium as used in Experimental Example 1 at the density of 1×10^5 cells/well. The cells were cultured in 5% CO2 at 37° C. for 4 hours to attach the cells onto the plate. The cells were treated with each sample at different concentrations, followed by further culture for 1 hour. […] were treated thereto at the final concentration of 500 ng/ml, followed by further culture for 24 hours. 100 μl of the supernatant was taken and transferred in a new plate, which was mixed with Griess reagent (a mixture of 1% sulfanilamide, 0.1% N-[1-naphthyl]-ethylenediamine dihydrochloride, and 5% phosphoric acid), followed by reaction for 10 minutes. Then, OD540 was measured. NO generation was quantified by using the sodium nitrite standard curve prepared from […] dissolved in the same medium at different concentrations. Considering the NO generation of the inflammation induced macrophages as 100%, the NO generation inhibition rate was calculated and presented in Table 7.

[4] = test system: Tumor Necrosis Factor Alpha (TNF-alpha); experiment: Inhibition of TNF-alpha generation in LPS-treated Raw 264.7 cells (ELISA); format: cell-based; conditions: Mus musculus, RAW264.7; Raw 264.7, LPS treated; read-out: Grades of IC50 on TNF-alpha generation
Protocol: Raw 264.7 cells were distributed by the same manner as described in Experimental Example <2-1>, which were treated with the samples selected due to their high NO and IL-6 suppressing effect at different concentrations. TNF-alpha included in the supernatant was measured by enzyme-linked immunosorbent assay (TNF-alpha ELISA kit, R&D Systems, MN, USA).
as §1, with “100-fold” for “10-fold”, “TNF-alpha” for “IL-6”, “9.” for “8.”

[5] = Rheumatoid arthritis (collagen-induced) model: weight changes; format: in vivo, mouse; conditions: DBA/1 CIA mice, 30 mg/kg oral, FIG. 10
Protocol: Bovine type II collagen (100 μg/mouse, Hondrax, Seattle, USA) and complete Freund's adjuvant (Chondrex, Seattle, USA) were intradermally injected in the tail of 7˜9 DBA/1 male mouse. On day 21, 100 μg of bovine type II collagen was mixed with incomplete Freund's adjuvant (IFA), which was injected in the tail of each mouse once again to induce arthritis.

IC50 ([1]; Mus musculus, RAW264.7) | weight change [5] | SMILES | Grades of cell survival rate (%, in 10 μM) [2] | Grades of NO generation inhibition rate (%) [3] | IC50 [4] | IC50 [1]
40 to 50 µM | – | COc1cccc(-c2cc3cc(CCCO)cc(OC)c3o2)c1 [Example 5, 3-(7-methoxy-2-(3-methoxyphenyl)benzofuran-5-yl)propane-1-ol] | A (A: 90<A≤100) | C (C: 15<C≤25) | – | –
20 to 30 µM | – | COc1ccc(-c2cc3cc(CCO)cc(OC)c3o2)cc1OC [Example 20, 2-[2-(3,4-dimethoxyphenyl)-7-methoxybenzofuran-5-yl]ethanol] | B (B: 80<B≤90) | A (A: 35<A≤100) | – | –
≤ 10 µM | – | COc1cc(-c2cc3cc(CCCO)cc(OC)c3o2)cc(OC)c1O [Example 26, 4-(5-(3-hydroxypropyl)-7-methoxybenzofuran-2-yl)-2,6-dimethoxyphenol] | A (A: 90<A≤100) | A (A: 35<A≤100) | 1 to 3 µM | –
40 to 50 µM | – | COc1cc(CCCO)cc2cc(-c3cccc(F)c3)oc12 [Example 8, 3-(2-(3-fluorophenyl)-7-methoxybenzofuran-5-yl)propane-1-ol] | A (A: 90<A≤100) | C (C: 15<C≤25) | – | –
40 to 50 µM | – | COc1cc(CCCO)cc2cc(-c3cccc(C)c3)oc12 [Example 3, 3-(7-methoxy-2-m-tolylbenzofuran-5-yl)propane-1-ol] | A (A: 90<A≤100) | A (A: 35<A≤100) | – | –
10 to 20 µM | – | COc1ccc(-c2cc3cc(CCCO)cc(OC)c3o2)cc1OC [Example 1, 3-[2-(3,4-dimethoxyphenyl)-7-methoxybenzofuran-5-yl]propane-1-ol] | A (A: 90<A≤100) | D (D: 5<D≤15) | 5 to 10 µM | –
40 to 50 µM | – | COc1ccc(-c2cc3cc(CCCO)cc(OC)c3o2)cc1O [Example 23, 5-(5-(3-hydroxypropyl)-7-methoxybenzofuran-2-yl)-2-methoxyphenol] | B (B: 80<B≤90) | C (C: 15<C≤25) | – | –
≤ 10 µM | – | COc1ccc(-c2cc3cc(CCCO)cc(OC)c3o2)c(C)c1 [Example 2, 3-(7-methoxy-2-(4-methoxy-2-methylphenyl)benzofuran-5-yl)propane-1-ol] | A (A: 90<A≤100) | A (A: 35<A≤100) | 3 to 5 µM | –
– | – | COc1ccc(CCc2cc(CCCO)cc(OC)c2O)cc1OC [Example 14, 2-(3,4-dimethoxyphenethyl)-4-(3-hydroxypropyl)-6-methoxyphenol] | C (C: 70<C≤80) | C (C: 15<C≤25) | – | –
– | – | COc1cccc(CCc2cc(CCCO)cc(OC)c2O)c1 [Example 17, 4-(3-hydroxypropyl)-2-methoxy-6-(3-methoxypenethyl)phenol] | B (B: 80<B≤90) | C (C: 15<C≤25) | – | 40 to 50 µM
20 to 30 µM | – | COc1ccc(-c2cc3cc(CCCO)cc(O)c3o2)cc1OC [Example 27, 2-(3,4-dimethoxyphenyl)-5-(3-hydroxypropyl)benzofuran-7-ol] | B (B: 80<B≤90) | D (D: 5<D≤15) | – | –
40 to 50 µM | – | COc1cc(CCCO)cc2cc(-c3ccc(N(C)C)cc3)oc12 [Example 9, 3-(2-(4-(dimethylamino)phenyl)-7-methoxybenzofuran-5-yl)propane-1-ol] | A (A: 90<A≤100) | C (C: 15<C≤25) | – | –
≤ 10 µM | – | COc1cc(-c2cc3cc(CCCO)cc(OC)c3o2)ccc1O [Example 22, 4-(5-(3-hydroxypropyl)-7-methoxybenzofuran-2-yl)-2-methoxyphenol] | A (A: 90<A≤100) | A (A: 35<A≤100) | 3 to 5 µM | –
10 to 20 µM | – | COc1cc(CCCO)cc2cc(-c3cc(F)cc(F)c3)oc12 [Example 6, 3-[2-(3,5-difluorophenyl)-7-methoxybenzofuran-5-yl]propane-1-ol] | A (A: 90<A≤100) | B (B: 25<B≤35) | 15 to 17 µM | –
– | – | COc1cc(CCCO)cc(CCc2ccc(C)cc2)c1O [Example 16, 4-(3-hydroxypropyl)-2-methoxy-6-(4-methylpenethyl)phenol] | A (A: 90<A≤100) | C (C: 15<C≤25) | – | 30 to 40 µM
40 to 50 µM | – | COc1ccc(-c2cc3cc(CO)cc(OC)c3o2)cc1OC [Example 18, [2-(3,4-dimethoxyphenyl)-7-methoxybenzofuran-5-yl]methanol] | A (A: 90<A≤100) | C (C: 15<C≤25) | – | –
≤ 10 µM | no weight change observed | COc1cc(CCCO)cc2cc(-c3ccc(O)c(O)c3)oc12 [Example 25, 4-(5-(3-hydroxypropyl)-7-methoxybenzofuran-2-yl)benzene-1,2-diol] | A (A: 90<A≤100) | A (A: 35<A≤100) | 1 to 3 µM | –
20 to 30 µM | – | COc1ccc(-c2cc3cc(CCCOC(C)=O)cc(OC)c3o2)cc1OC [Example 28, 3-(2-(3,4-dimethoxyphenyl)-7-methoxybenzofuran-5-yl)propyl acetate] | A (A: 90<A≤100) | B (B: 25<B≤35) | 1 to 3 µM | –
10 to 20 µM | – | COc1cc(CCCO)cc2cc(-c3cc(O)cc(O)c3)oc12 [Example 24, 5-(5-(3-hydroxypropyl)-7-methoxybenzofuran-2-yl)benzene-1,3-diol] | A (A: 90<A≤100) | A (A: 35<A≤100) | 5 to 10 µM | –
40 to 50 µM | – | COc1ccc(-c2cc3cc(CCCO)cc(OC)c3o2)cc1 [Example 7, 3-(7-methoxy-2-(4-methoxyphenyl)benzofuran-5-yl)propane-1-ol] | A (A: 90<A≤100) | D (D: 5<D≤15) | – | –
